Source: patent publication US9693995B2, “Pharmaceutical composition for topical administration” (Ziarco Pharma Ltd., priority 2014, dated 2017)

Key:
[1] = Small scale in vitro permeation/penetration experiment, Franz diffusion cell; type: in vitro ADME, human
Description: Commonly, in vitro skin permeation experiments involve the use of a diffusion cell designed to mimic the physiological and anatomical conditions of skin in situ. The model used in this experiment was the Franz diffusion cell (Finnin et al. Topical and Transdermal Drug Delivery 2012: 85-100, Benson and Watkinson (Eds), incorporated herein by reference). Skin prepared as described below was positioned between the two halves of the cell with the Stratum corneum facing the donor compartment allowing for drug application. The aim of the work was to compare the drug concentrations permeating into and across dermatomed human skin when applied from different formulations/solvent systems. […]
Two solvent systems were selected for a small scale in vitro drug permeation study and was dosed as described below: • (i) The cells were assembled as described above. • (ii) Nine cells were assembled. Two solvent system (n=3), respective placebo solvent system (n=1) and a blank cell (n=1) were assessed during the feasibility experiment. • (iii) The selected solvent systems (6 mg) were applied directly to the surface of the skin with a positive displacement pipette (resulting in a dose of approximately 10 mg/cm^2). […] Weights and volumes applied (to ensure a 6 mg dose) were recorded. • (iv) Receiver fluid (200 μL) was removed at the following time points t=0, 1, 2, 4, 6, 24, 30 and 48 h. […]

cPLA2α = biological target: T1, cPLA2α (Homo sapiens, UniProt P47712); conditions: cellular and enzymatic assays; cited from earlier work
T1 sequence (P47712 1-749): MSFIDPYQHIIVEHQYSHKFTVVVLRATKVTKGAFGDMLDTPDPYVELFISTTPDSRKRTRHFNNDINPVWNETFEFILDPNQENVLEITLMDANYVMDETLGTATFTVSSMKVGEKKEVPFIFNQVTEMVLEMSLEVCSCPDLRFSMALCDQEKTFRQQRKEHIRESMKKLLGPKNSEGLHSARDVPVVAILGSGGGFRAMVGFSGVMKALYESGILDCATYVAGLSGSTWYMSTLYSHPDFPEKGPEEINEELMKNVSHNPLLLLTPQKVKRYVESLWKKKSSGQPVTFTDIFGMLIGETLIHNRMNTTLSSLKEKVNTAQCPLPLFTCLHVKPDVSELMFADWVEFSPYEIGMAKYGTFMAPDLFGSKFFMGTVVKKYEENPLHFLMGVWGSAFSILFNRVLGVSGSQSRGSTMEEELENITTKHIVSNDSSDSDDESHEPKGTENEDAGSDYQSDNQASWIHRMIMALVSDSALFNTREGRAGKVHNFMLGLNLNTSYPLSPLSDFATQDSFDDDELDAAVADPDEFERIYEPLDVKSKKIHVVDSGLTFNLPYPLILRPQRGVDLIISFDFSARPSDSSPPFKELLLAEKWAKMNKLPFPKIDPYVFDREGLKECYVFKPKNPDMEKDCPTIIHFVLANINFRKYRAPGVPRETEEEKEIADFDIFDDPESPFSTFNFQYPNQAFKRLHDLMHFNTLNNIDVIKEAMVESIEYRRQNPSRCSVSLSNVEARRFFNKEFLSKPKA

PMA-mediated skin oedema = assay: PMA-induced inflammation in mice (ear thickness by calliper); type: in vivo, Balb/C laboratory mice
Experimental: Phorbol 12-myristate 13-acetate (PMA) is commonly used to induce inflammation and oedema of the skin of laboratory animals as a preclinical inflammation model.
In the present example PMA was dissolved in a 10% ethanol solution to a final concentration of 0.4 μg per μl. A 10 μl was applied to the ears of Balb/C laboratory mice 1 hour after topical application of 3-{4-[2-{5-chloro-1-(diphenylmethyl)-2-[2-({[2-(trifluoromethyl)benzyl]sulfonyl}amino)ethyl]-1H-indol-3-yl}ethyl]sulfonyl}phenyl}propanoic acid (Compound I) in a 10% ethanol solution at either 0.3% or 3% w/w. As a negative control the vehicle was applied without the active compound. Positive controls were indomethacin (a non-steroidal anti-inflammatory drug) and CAY10650 (a known cPLA2α inhibitor).
The level of oedema was monitored by measurement of ear thickness by calliper at intervals of 1, 3, 6 and 24 hours

PLA2 = conditions: read-out: IC50, inhibition of PLA2 activity; acid extracted intact human neutrophil homogenate; Marshall et al. 1995; cited from earlier work

Row | Compound | total recovery of Compound I ([1]; for each solvent system applied (SS1, SS2), after t=48 h, single skin donor) | Compound I detected in the receiver fluid ([1]; solvent systems SS1 and SS2, 48 h experiment, irrespective of sample volume (200 μL, 1.5 mL), receiver fluid EtOH 20% v/v in water) | inhibition of cPLA2α activity (potency in words) (cPLA2α) | efficacy against PMA-mediated skin oedema relative to positive control (PMA-mediated skin oedema; topical Compound I versus orally-dosed indomethacin) | reduction in PMA-mediated skin oedema (PMA-mediated skin oedema; topical, 0.3% or 3% w/w in 10% ethanol solution, 1 hour before PMA on ears, ear thickness at 1, 3, 6 and 24 hours) | IC50 (PLA2)
1 | O=C(O)CCc1ccc(S(=O)(=O)CCc2c(CCNS(=O)(=O)Cc3ccccc3C(F)(F)F)n(C(c3ccccc3)c3ccccc3)c3ccc(Cl)cc23)cc1 [Compound I] | 90.00-109.72 % of the applied dose | not detected | sub-low nanomolar inhibitor | comparable to orally-dosed indomethacin | dose-dependent reduction | 
2 | O=C(O)c1ccccc1Oc1ccc(C(F)(F)F)cc1NS(=O)(=O)c1cc(C(F)(F)F)cc(C(F)(F)F)c1 [SB 203347] |  |  |  |  |  | 4.7 µM
